Measured values: PMC10176470, “Engaging a Non-catalytic Cysteine Residue Drives Potent and Selective Inhibition of Caspase-6” (Journal of the American Chemical Society, 2023)

How the values were obtained:
Format in all cases: cell-based
[1] = target: proteins of HEK293T cells transiently overexpressing caspase-6 (Homo sapiens, UniProt P27348); conditions: exp_ref Probe; protein YWHAQ (P27348); analysis C6
[2] = target: proteins of HEK293T cells transiently overexpressing caspase-6 (Homo sapiens, UniProt P25705); conditions: exp_ref Probe; protein ATP5A1 (P25705); analysis C6
proteins of HEK293T cells transiently overexpressing caspase-6 (Homo sapiens, UniProt P25705), sequence (P25705 44-553): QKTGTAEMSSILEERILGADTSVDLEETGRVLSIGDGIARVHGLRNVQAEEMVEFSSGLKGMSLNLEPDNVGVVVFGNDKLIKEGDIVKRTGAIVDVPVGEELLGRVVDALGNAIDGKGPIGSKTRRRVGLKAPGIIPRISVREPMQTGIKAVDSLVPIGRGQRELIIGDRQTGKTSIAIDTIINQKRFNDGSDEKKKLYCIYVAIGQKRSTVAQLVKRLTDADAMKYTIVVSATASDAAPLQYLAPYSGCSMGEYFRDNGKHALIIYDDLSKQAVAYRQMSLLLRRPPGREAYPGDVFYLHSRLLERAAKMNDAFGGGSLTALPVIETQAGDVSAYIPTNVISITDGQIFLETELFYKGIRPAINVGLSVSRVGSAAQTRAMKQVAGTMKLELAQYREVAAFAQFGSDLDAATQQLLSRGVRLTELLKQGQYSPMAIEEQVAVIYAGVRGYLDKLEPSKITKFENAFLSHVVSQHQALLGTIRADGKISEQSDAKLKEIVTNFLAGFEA

[3] = target: proteins of HEK293T cells transiently overexpressing caspase-6 (Homo sapiens, UniProt P18621); conditions: exp_ref Probe; protein RPL17 (P18621); analysis C6
[4] = target: T1, proteins of HEK293T cells transiently overexpressing caspase-6 (Homo sapiens, UniProt P22234); conditions: protein PAICS (P22234)
T1 sequence (P22234 1-425): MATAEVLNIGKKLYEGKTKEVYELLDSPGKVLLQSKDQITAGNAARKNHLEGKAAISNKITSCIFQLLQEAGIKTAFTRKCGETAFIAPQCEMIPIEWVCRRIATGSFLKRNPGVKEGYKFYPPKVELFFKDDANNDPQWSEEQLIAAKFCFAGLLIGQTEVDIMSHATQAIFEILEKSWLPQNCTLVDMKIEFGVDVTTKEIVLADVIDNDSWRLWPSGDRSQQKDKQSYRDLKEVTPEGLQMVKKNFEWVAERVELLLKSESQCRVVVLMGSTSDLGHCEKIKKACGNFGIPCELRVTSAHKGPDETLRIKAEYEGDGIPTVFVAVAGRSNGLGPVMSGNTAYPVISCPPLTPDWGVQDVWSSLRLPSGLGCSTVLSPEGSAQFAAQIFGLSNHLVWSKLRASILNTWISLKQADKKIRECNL

[5] = target: proteins of HEK293T cells transiently overexpressing caspase-6 (Homo sapiens, UniProt P35908); conditions: Probe; protein KRT2 P35908
[6] = target: proteins of HEK293T cells transiently overexpressing caspase-6 (Homo sapiens, UniProt P60842); conditions: exp_ref Probe; protein EIF4A1 (P60842); analysis C6
proteins of HEK293T cells transiently overexpressing caspase-6 (Homo sapiens, UniProt P60842), sequence (P60842 whole entry): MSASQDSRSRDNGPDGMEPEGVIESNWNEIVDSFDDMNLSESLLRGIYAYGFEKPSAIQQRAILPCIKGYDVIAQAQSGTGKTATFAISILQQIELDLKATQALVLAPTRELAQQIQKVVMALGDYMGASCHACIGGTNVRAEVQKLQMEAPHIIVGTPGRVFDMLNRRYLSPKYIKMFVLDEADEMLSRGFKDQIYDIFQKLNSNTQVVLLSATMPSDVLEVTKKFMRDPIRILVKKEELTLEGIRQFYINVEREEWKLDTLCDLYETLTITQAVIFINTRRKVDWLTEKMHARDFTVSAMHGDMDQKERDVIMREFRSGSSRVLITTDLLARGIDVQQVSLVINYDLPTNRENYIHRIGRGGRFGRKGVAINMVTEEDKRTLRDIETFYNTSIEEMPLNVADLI

[7] = target: T2, proteins of HEK293T cells transiently overexpressing caspase-6 (Homo sapiens, UniProt Q96F45); conditions: protein ZNF503 (Q96F45), analysis C6
T2 sequence (Q96F45 1-646): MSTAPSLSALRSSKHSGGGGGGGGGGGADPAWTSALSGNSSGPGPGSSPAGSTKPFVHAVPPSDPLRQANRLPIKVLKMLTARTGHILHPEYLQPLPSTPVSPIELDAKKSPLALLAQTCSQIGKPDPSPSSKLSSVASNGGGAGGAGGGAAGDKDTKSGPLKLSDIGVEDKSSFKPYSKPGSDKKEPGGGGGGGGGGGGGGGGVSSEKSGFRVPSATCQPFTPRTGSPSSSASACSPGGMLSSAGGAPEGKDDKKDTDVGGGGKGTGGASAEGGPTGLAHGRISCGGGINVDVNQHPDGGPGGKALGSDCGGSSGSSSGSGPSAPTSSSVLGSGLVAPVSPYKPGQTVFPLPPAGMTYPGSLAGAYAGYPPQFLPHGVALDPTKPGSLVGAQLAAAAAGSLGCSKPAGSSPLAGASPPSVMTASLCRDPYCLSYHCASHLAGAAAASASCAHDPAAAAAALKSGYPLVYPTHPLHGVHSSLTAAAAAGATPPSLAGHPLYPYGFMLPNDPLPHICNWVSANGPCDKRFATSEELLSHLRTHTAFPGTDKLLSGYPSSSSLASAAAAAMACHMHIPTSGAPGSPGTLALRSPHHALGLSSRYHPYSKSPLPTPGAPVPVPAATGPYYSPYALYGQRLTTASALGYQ

[8] = target: proteins of HEK293T cells transiently overexpressing caspase-6 (Homo sapiens, UniProt P39023); conditions: exp_ref Probe; protein RPL3 (P39023); analysis C6
[9] = target: proteins of HEK293T cells transiently overexpressing caspase-6 (Homo sapiens, UniProt P46060); conditions: exp_ref Probe; protein RANGAP1 (P46060); analysis C6
[10] = target: proteins of HEK293T cells transiently overexpressing caspase-6 (Homo sapiens, UniProt P78527); conditions: exp_ref Probe; protein PRKDC (P78527); analysis C6
[11] = target: proteins of HEK293T cells transiently overexpressing caspase-6 (Homo sapiens, UniProt P61981); conditions: Probe; protein YWHAG P61981
proteins of HEK293T cells transiently overexpressing caspase-6 (Homo sapiens, UniProt P61981), sequence (P61981 whole entry): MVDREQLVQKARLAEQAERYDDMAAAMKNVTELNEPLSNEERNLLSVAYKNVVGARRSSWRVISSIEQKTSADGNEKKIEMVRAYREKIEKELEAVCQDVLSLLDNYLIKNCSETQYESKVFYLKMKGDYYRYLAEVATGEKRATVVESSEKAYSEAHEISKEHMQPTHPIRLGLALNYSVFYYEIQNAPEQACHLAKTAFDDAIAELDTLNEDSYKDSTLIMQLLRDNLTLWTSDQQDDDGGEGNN

[12] = target: proteins of HEK293T cells transiently overexpressing caspase-6 (Homo sapiens, UniProt P61978); conditions: protein HNRNPK (P61978)
[13] = target: proteins of HEK293T cells transiently overexpressing caspase-6 (Homo sapiens, UniProt P30153); conditions: exp_ref Probe; protein PPP2R1A (P30153); analysis C6
proteins of HEK293T cells transiently overexpressing caspase-6 (Homo sapiens, UniProt P30153), sequence (P30153 whole entry): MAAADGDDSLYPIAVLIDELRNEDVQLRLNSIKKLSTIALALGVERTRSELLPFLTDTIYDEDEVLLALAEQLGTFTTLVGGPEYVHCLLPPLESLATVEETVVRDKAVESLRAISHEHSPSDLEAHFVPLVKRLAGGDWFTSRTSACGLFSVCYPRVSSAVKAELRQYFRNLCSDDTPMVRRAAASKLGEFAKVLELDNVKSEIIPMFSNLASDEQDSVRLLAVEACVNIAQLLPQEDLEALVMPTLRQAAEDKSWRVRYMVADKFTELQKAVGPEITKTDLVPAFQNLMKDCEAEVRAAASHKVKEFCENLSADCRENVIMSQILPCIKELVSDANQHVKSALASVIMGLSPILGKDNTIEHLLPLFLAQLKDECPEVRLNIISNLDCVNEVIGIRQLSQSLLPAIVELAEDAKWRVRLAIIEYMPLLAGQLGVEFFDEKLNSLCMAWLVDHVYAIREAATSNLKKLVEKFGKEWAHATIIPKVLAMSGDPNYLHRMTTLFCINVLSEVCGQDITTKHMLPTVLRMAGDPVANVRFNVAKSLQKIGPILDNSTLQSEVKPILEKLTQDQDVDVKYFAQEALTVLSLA

[14] = target: proteins of HEK293T cells transiently overexpressing caspase-6 (Homo sapiens, UniProt P52272); conditions: exp_ref Probe; protein HNRNPM (P52272); analysis C6
[15] = target: proteins of HEK293T cells transiently overexpressing caspase-6 (Homo sapiens, UniProt P05023); conditions: exp_ref Probe; protein ATP1A1 (P05023); analysis C6
[16] = target: proteins of HEK293T cells transiently overexpressing caspase-6 (Homo sapiens, UniProt O95373); conditions: Probe; protein IPO7 O95373
proteins of HEK293T cells transiently overexpressing caspase-6 (Homo sapiens, UniProt O95373), sequence (O95373 whole entry): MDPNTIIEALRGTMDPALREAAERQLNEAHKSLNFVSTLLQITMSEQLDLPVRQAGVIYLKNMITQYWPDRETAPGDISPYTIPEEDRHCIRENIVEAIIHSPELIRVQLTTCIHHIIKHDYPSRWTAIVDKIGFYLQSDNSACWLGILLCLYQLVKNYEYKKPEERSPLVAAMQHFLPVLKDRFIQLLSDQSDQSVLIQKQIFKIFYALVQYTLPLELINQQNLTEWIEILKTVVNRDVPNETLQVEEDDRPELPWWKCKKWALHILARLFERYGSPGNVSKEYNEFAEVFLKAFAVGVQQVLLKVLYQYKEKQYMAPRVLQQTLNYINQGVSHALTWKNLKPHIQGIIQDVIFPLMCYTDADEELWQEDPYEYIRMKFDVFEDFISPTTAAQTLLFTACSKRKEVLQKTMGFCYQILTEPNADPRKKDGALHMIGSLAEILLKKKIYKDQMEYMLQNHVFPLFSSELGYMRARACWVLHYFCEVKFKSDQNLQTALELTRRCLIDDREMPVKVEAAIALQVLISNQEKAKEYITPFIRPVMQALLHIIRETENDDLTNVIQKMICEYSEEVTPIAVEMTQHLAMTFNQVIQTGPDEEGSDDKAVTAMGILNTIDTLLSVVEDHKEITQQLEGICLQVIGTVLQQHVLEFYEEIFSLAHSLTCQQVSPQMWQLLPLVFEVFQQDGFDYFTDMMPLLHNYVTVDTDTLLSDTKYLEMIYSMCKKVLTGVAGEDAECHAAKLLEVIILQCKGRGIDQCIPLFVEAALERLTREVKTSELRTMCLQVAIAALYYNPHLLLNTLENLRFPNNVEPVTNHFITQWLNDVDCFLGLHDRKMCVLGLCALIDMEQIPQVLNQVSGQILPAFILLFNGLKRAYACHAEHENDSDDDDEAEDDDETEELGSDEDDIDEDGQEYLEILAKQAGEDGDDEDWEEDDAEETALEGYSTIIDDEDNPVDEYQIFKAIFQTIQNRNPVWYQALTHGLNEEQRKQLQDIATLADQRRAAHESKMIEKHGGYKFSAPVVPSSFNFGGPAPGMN

[17] = target: proteins of HEK293T cells transiently overexpressing caspase-6 (Homo sapiens, UniProt P07814); conditions: exp_ref Probe; protein EPRS (P07814); analysis C6
proteins of HEK293T cells transiently overexpressing caspase-6 (Homo sapiens, UniProt P07814), sequence (P07814 whole entry): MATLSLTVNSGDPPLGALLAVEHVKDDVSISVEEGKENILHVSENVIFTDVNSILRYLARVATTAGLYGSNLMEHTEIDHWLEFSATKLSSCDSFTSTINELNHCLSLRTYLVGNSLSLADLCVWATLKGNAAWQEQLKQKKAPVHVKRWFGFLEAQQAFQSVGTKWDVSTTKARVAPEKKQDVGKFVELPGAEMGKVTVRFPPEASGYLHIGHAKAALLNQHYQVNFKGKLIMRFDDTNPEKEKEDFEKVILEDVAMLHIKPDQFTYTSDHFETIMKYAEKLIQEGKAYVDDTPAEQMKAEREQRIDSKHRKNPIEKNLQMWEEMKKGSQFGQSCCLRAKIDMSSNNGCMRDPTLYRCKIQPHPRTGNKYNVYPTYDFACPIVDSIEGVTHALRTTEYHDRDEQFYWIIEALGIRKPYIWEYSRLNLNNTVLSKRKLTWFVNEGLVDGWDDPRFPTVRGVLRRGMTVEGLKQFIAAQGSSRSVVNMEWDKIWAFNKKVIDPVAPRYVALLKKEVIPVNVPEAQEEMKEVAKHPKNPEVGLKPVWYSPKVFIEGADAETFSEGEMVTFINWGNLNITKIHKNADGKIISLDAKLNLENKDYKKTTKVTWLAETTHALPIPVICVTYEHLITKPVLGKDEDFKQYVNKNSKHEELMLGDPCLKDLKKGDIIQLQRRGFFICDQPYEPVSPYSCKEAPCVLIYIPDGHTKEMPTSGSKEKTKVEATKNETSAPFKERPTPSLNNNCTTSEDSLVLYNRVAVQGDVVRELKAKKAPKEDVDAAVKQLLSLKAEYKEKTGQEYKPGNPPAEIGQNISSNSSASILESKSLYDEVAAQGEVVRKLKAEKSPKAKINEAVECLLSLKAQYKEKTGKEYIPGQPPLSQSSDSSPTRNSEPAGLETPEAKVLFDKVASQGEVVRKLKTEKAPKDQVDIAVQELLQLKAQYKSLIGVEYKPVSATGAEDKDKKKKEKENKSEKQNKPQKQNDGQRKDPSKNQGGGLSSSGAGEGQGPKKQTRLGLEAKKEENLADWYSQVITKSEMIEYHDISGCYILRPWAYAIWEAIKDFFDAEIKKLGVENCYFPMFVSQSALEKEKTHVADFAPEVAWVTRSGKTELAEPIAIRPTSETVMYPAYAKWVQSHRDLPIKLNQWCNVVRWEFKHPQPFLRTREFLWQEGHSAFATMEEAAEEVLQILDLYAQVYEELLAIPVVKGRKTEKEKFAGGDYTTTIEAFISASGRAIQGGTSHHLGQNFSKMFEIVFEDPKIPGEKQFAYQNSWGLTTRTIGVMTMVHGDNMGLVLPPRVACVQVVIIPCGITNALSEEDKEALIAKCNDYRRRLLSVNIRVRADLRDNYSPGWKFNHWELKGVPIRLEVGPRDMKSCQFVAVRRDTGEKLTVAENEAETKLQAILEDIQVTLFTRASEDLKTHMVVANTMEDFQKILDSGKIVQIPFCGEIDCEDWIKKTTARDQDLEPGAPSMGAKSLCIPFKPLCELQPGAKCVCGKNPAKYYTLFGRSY

[18] = target: proteins of HEK293T cells transiently overexpressing caspase-6 (Homo sapiens, UniProt O75533); conditions: exp_ref Probe; protein SF3B1 (O75533); analysis C6

proteins of HEK293T cells transiently overexpressing caspase-6 (Homo sapiens, UniProt P27348), sequence (P27348 whole entry): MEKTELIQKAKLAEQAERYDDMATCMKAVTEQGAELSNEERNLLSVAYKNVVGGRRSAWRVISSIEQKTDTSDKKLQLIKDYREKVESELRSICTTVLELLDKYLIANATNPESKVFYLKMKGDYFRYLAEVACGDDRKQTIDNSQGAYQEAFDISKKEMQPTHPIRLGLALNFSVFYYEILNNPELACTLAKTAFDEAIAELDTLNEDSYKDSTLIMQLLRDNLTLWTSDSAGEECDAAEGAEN

C#CCOc1ccc([C@@H]2C[C@@H](C(=O)Nc3ccc(OC(F)(F)F)cc3)CN(S(=O)(=O)C=C)C2)cc1 (relative stereo) [13-t]
enrich.exp.med [1]: 0.7591
enrich.exp.med [2]: -0.052
enrich.exp.med [3]: 0.5148
enrich.exp.med ([4]; exp_ref Probe, analysis C6): 0.8585
enrich.exp.med.lin [4]: 1.813
enrich.exp.med.log2 [4]: 0.8585
enrich.exp.med [5]: -8.257
enrich.exp.med [6]: 0.8215
enrich.exp.med.lin ([7]; Expt Probe): 59.486
enrich.exp.med.log2 ([7]; Expt Probe): 5.894
enrich.exp.med ([7]; exp_ref Probe): 5.894
enrich.exp.med [8]: -0.06221
enrich.exp.med [9]: 0.1212
enrich.exp.med [10]: 0.5475
enrich.exp.med [11]: -1.712
enrich.exp.med ([12]; exp_ref Probe, analysis C6): 0.3594
enrich.exp.med.lin [12]: 1.283
enrich.exp.med.log2 [12]: 0.3594
enrich.exp.med [13]: 0.444
enrich.exp.med [14]: 0.2991
enrich.exp.med [15]: -0.3639
enrich.exp.med [16]: -0.5106
enrich.exp.med [17]: 0.5173
enrich.exp.med [18]: 0.3273
